# Experiment: Human HepG2 cell viability assay in 384 well format
# Assay type: toxicity, cell-based
# Parameters: dose 125 nL, time 70.5 hour; concentration not given beside the values
# Conditions: HepG2 cells, read-out: Inhibition
row,Compound,cytotoxicity at 70.5 h
1,CN(C)c1ccc(CNC(=O)Nc2ccc(S(=O)(=O)C(F)F)cc2)cc1,-0.147%
2,O=C(Nc1ccnn1Cc1ccccc1Cl)C1CCS(=O)(=O)C1 (centres undefined),-17%
3,CN(C)C(=O)[C@@H]1CC[C@@H]2[C@@H](CCN2Cc2ccccn2)O1,-7.99%
4,Fc1ccc(OC2CCN(CCn3cncn3)CC2)cc1,-9.54%
5,CCc1oc(C(=O)NCCc2nc(C(=O)O)cs2)cc1CN1CCCC1,-3.56%
6,CCS(=O)(=O)N1CCC2(CC1)CC(OCC1CC1)CO2 (centres undefined),-7.89%
7,CS(=O)(=O)c1cccc(C(=O)N2CCCC(n3cccn3)C2)c1 (centres undefined),2.98%
8,CC1(C)[C@H]2CC=C(CN3CCCn4nc(CCC(=O)O)cc4C3)[C@@H]1C2,-14.3%
9,O=C(c1cnccn1)N(CCO)Cc1cc(Br)ccc1F,-5.51%
10,O=S(=O)(c1ccccc1)N1CCCC(Cn2cncn2)C1 (centres undefined),-4.76%
11,O=C(c1ccc2nncn2c1)N1CCCC(n2ccnc2)C1 (centres undefined),-14.2%
12,c1coc(CN2CCCn3c(nnc3Cn3cccc3)C2)c1,-3.91%
13,Cn1c(CN2CCC(OCc3cccnc3)CC2)cc2ccccc21,1.71%
14,CN(Cc1noc2c1CCCC2)C(=O)CN1C(=O)COc2ccccc21,-6.93%
15,CS(=O)(=O)NC[C@]12COC[C@H]1CN(CCc1ccccc1)C2,-8.06%
16,CCCn1nnnc1COc1cc(OC)ccc1C(=O)OC,-7.14%
17,Cc1ccc(N2CC[C@H](OCC3CC3)[C@@H]2Cc2cnn(C)c2)nn1,0.692%
18,CC(O)CC(C)(C)CNC(=O)NCc1cccc(-n2ccnc2)c1 (centres undefined),-7.65%
19,CCCC(=O)N1CCCCC1c1nc(N(C)C)ncc1-c1cc(C)no1 (centres undefined),-2.48%
20,COCCN1CCN(S(C)(=O)=O)Cc2ccc(C)nc21,-2.02%
21,CN(C)C(=O)c1ccc(-c2cccc3c2CCNC3)o1,-5.11%
22,CC(C)n1ccnc1CN1CCOC(C)(C(=O)N2CCOCC2)C1 (centres undefined),-5.02%
23,CN(C)Cc1nc(C(C)(C)NC(=O)C2CC(=O)N(CC3CC3)C2)no1 (centres undefined),19.5%

row,Compound,cytotoxicity at 70.5 h
1,Cc1ccc(-c2nc(CCNCc3ccncc3)co2)cc1,-6.27%
2,CN(C)C(=O)CN1C[C@@H]2CC[C@H](C1)N(Cc1c(Cl)cncc1Cl)C2,-9.62%
3,CCc1ccc(S(=O)(=O)N2CC[C@@](O)(CCOC)[C@H](C)C2)cc1,-10.2%
4,CC(NC(=O)NCCNc1cccc(F)c1C#N)c1nccs1 (centres undefined),-2.26%
5,O=C(COCC(F)(F)C(F)F)N1CCC2(CCCN(CCO)C2=O)C1 (centres undefined),-2.98%
6,Cc1ccc(C(=O)N2CCN(CCc3cccs3)CC2)c(=O)[nH]1,-8.54%
7,Cc1nc(CNCC(O)COc2ccc3c(c2)OCO3)cs1 (centres undefined),1.9%
8,COc1cccc(Nc2nc(N3CCCC3)nc3c2CNCC3)c1,43.7%
9,NCCc1cccc(CN2CCN(c3cccc(Cl)c3)C(=O)C2)c1,-7.22%
10,O=C1CC2(CCN(CCCO)CC2)CN1Cc1ccc(F)c(F)c1,-5%
11,Cc1cc(Br)c2c(c1)C1(CC(=O)Nc3c1cnn3C(C)C)C(=O)N2 (centres undefined),-24.3%
12,Cc1c(C(=O)NCCC(C)C)nnn1-c1cccc2c1CCN(C)C2,-5.25%
13,Cc1ccc(C)c(NC(=O)Cc2c(C)nc3c(c2C)c(=O)[nH]n3C)c1,29.5%
14,CC(C)N1CCCn2nc(C(=O)NCc3ccccc3F)cc2C1,-5.27%
15,O=C1NC[C@H]2CN(Cc3nccs3)CCN12,-8.47%
16,O=C(c1cn(CC(=O)N2CCCCCC2)c2ccccc12)C1CC1,-7.67%
17,Cc1nc(CN2C(=O)CCC23CCN(c2ncccc2C)CC3)cs1,33.3%
18,COc1cccc(COCC(=O)N2CCCC(n3cccn3)C2)c1 (centres undefined),-4.65%
19,COc1ccccc1N1CCN(CC[C@H](O)c2ccccc2)CC1=O,-12%
20,Cn1nc2c(cc1=O)CN(Cc1nc(-c3cccnc3)no1)CC2,-3.78%
21,CC1c2ncc(CN3CCN(C)CC3)n2CCN1Cc1cnn(C)c1 (centres undefined),13.6%
22,CCc1nc(CN2CCCN(C(=O)c3cccn3C)CC2)cs1,2.1%
23,COc1ccc(CN(C(=O)CCC(C)C)c2cnn(C)c2)c(OC)c1,-4.57%

row,Compound,cytotoxicity at 70.5 h
1,CNC(=O)c1cc2c(nc1N(C)C)CCN(c1ncccn1)CC2,-12%
2,Cc1noc(C)c1CC(=O)N1CCC(c2ccn3nccc3n2)CC1,0.22%
3,CCOCC(O)CN1CCN(C(=O)c2cccc3[nH]ncc23)CC1 (centres undefined),-4.87%
4,CCNc1nc2c(s1)C(=O)CN(C(=O)NCc1ccccc1)C2,-0.493%
5,CCOC(=O)NCCC(O)c1ccoc1 (centres undefined),-11.9%
6,NC(=O)N1Cc2nccn2CC(Cn2ncccc2=O)C1 (centres undefined),1.65%
7,Cc1ccc2occ(CN3CCN(c4ncccn4)CC3)c(=O)c2c1,29.4%
8,CCNC(=O)Nc1c(C)cnn1Cc1cc(F)ccc1F,-11.6%
9,COc1cc(CSc2nnc(C)n2CC(N)=O)ccc1SC,-118%
10,Cc1cc(C)n(CCCNC(=O)[C@@H](C)NC(=O)OC(C)(C)C)n1,-14.4%
11,CC(O)CCN(C)C(=O)Nc1cccc(F)c1 (centres undefined),-8.99%
12,CCc1ccsc1C(=O)N1CCN(CC(N)=O)CC1,13.8%
13,CN(Cc1noc(C2CC2)n1)C1CCN(Cc2nc(C3CC3)no2)C1 (centres undefined),0.524%
14,CC(NC(=O)NCC1(c2ccc(Cl)cc2)CC1)c1nncn1C (centres undefined),-2.86%
15,CCC(=O)N(CCN(C)C)Cc1ccc(F)c(F)c1,-13.7%
16,Cc1noc(C)c1CN1CCC2(CC1)NC(=O)CC2c1ccccc1 (centres undefined),2.78%
17,CC(C)NC(=O)N1CCC2(CC1)Cc1ccccc1CNC2=O,-4.51%
18,O=C(N[C@@H]1CN(c2ncccn2)C[C@@H]2CCCO[C@@H]21)c1cccnc1,7.96%
19,Cc1ccnc(OC[C@@]23CCO[C@@H]2CCN(C2CCC2)C3)n1,4.5%
20,Cc1cc(CCC(=O)N2CCOCC2)ccc1Br,-5.28%
21,CCc1ccc(C(=O)NCc2ccnc(C)n2)cc1,-8.72%
22,N#Cc1ccc(N2CCCN(CC(=O)N3CCNC(=O)C3)CC2)cc1,3.9%
23,CC(C)n1cc2cc(NC(=O)Cn3cnnn3)ccc2n1,-7.92%

row,Compound,cytotoxicity at 70.5 h
1,COc1ccc(NC(=O)N2CCN(CCSc3ccccc3)CC2)cc1,3.81%
2,CCC1CCCCN1S(=O)(=O)c1c(N)noc1C (centres undefined),-2.36%
3,Cc1ccc(-c2noc(CNCC3CN(C)CCO3)n2)cc1F (centres undefined),-5.24%
4,COc1ncc(C2(O)CCN(Cc3ccccc3O)CC2)c(OC)n1,7.32%
5,c1cncc(OC[C@]23COC[C@H]2CN(C2CCC2)C3)c1,-1.17%
6,CCOCCNC(=O)c1cccnc1N1CCCC1c1ccccn1 (centres undefined),-8.32%
7,O=S(=O)(NCCc1nnc2ccccn12)c1cccnc1,14.7%
8,OCC1(Cc2ccc(Cl)cc2)CCN(Cc2ccccc2O)CC1,-4.64%
9,CC(O)Cc1cn(CC2CCN(C3CCSCC3)CC2)nn1 (centres undefined),-4.31%
10,CCS(=O)(=O)N1CCC(Nc2c(Cl)cccc2C#N)CC1,-90.6%
11,CC(C)[C@H](NC(=O)N1CCC(Cc2ccccc2)CC1)C(=O)O,-8.02%
12,Cc1ccc(N2C[C@@H]3CN(Cc4ccoc4)CCO[C@@H]3C2)nn1,10.2%
13,Cc1oc(-c2nc(C#N)c(NC3CC3)o2)cc1S(=O)(=O)N1CCCC1,-25.9%
14,O=C(O)c1cn2cc(C(F)(F)F)ccc2n1,2.77%
15,O=C(NCC(O)c1ccccc1)Nc1cccs1 (centres undefined),18.8%
16,O=C(c1cn(CCN2CCCCC2)nn1)N1CCCO1,-6.13%
17,Cc1cc(C)n(C2CN(CC(=O)N(C)Cc3ccsc3)C2)n1,-1.75%
18,Cc1cccc(NC2CCN(C(=O)Nc3cc(F)ccc3F)CC2)n1,0.351%
19,O=C(CCc1nccs1)N1CCCC(N2CCNC2=O)C1 (centres undefined),0.762%
20,CNC(=O)c1cc(-n2ccnc2-c2cnc(N(C)C)nc2)ccc1OC,3.46%
21,COc1ccc(NC(=O)NCc2cccc(N(C)C)n2)c(Cl)c1,-8%
22,O=C(CCN1CCCC1c1cccs1)N1CCc2sccc2C1 (centres undefined),-13.7%
23,Cc1ccsc1C(Cc1ccccc1)NC(=O)CSCC(N)=O (centres undefined),-4.76%

row,Compound,cytotoxicity at 70.5 h
1,CCN(Cc1nccs1)Cc1cc(Cl)ccc1OC,2.82%
2,CCc1cc(N2CCC(NC(=O)CCC3CCCO3)CC2)ncn1 (centres undefined),25.3%
3,Cc1ccc(CNC(=O)N2CCN(Cc3ccsc3)CC2)n1C,30.9%
4,O=C(NCCNC1CCCC1)c1cccs1,-6.72%
5,Cc1nc(CN2CCC(CNC(=O)C3(C)CCCC3)CC2)oc1C,-4.66%
6,Cc1ccc(N2CCN(C(=O)COc3nccc(C)n3)CC2)nn1,16%
7,Cc1ccc(NC(=O)C2CSCN2C(=O)c2cnccn2)c(C)c1 (centres undefined),-5.93%
8,c1cc(C2CCN(Cc3nc(C4CC4)no3)CC2)[nH]n1,-6.11%
9,CCC1=N[C@@]2(CC[C@@H]3CN(C(=O)NC(C)C)C[C@@H]32)C(=O)N1C,-1.59%
10,CC(C)c1noc(CNC2CCCN(Cc3noc(C4CC4)n3)C2)n1 (centres undefined),-11.4%
11,CCc1nc(CN2CCCN(C(=O)CCSC)CC2)cs1,-15.8%
12,Cc1nn2c(N3CCS(=O)(=O)CC3)cc(-c3ccccc3)nc2c1C,1.53%
13,Cc1cc(NC(=O)N2CCOC(C(N)=O)C2)ccc1Br (centres undefined),-12.3%
14,Cc1cc(C)n(CCN2CCC(N(C)Cc3nnc(C)n3C)C2)n1 (centres undefined),-0.44%
15,CCc1nccn1CCCNC(=O)c1cnn(-c2ccccc2OC)c1,-5.05%
16,Cc1cc(NCCCNS(C)(=O)=O)nc2ccccc12,2.5%
17,CC(NC(=O)c1ccc(CS(C)(=O)=O)o1)c1ccc(F)c(F)c1 (centres undefined),-3.42%
18,NC(=O)C(NCc1cccs1)c1ccccc1 (centres undefined),-9.69%
19,CCOC(=O)C1CCN(Cc2csc(C(C)(C)C)n2)CC1,-2.2%
20,CC(C)(C)c1n[nH]c(C2CN(C(=O)C3=COCCC3)CCO2)n1 (centres undefined),-6.48%
21,CCNc1cc2c(nn1)CCN(C(=O)c1ccc(-n3cnnc3)cc1)C2,-0.933%
22,CS(=O)(=O)N1CCC(Oc2ccc(C(=O)NCC3CCC3)cc2Cl)CC1,-12.8%
